{"source": "patent US12391674B2", "about": "“Heterocyclic compounds for the treatment of epilepsy” (OTSUKA PHARMACEUTICAL CO., LTD., priority 2018, dated 2025)", "key": {"DBA/2 mice": {"test_system": "DBA/2 mice", "assay": "Audiogenic seizure model", "type": "in vivo", "conditions": "Mus musculus, DBA/2 mice, oral, auditory stimulation 1 hour after administration, read-out: Seizure suppression", "in_short": "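Male and female DBA/2 mice (3 weeks old, 8/group) dosed orally at 30 mg/kg in 5% gum arabic; 1 h later exposed to 12.6 kHz, 100-110 dB tone for 1 min or until tonic seizure. Maximum seizure score (0–4) recorded; suppression rate graded A (≥90%), B (70–<90%), C (50–<70%).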"}, "ICR mice": {"test_system": "ICR mice", "assay": "Rotarod test (motor coordination)", "type": "in vivo, mouse", "conditions": "oral, rotarod 1 hour after administration", "experimental": "This test is performed to evaluate the effect of the compound on the motor coordination. In this test example, the example compounds shown in Table 4 below were used as test compounds. Male ICR mice (Japan SLC, Inc., 5-6 weeks, 8 per group) were trained to remain on a fixed speed (15 rpm) rotating rod of rotarod apparatus (Muromachi Kikai Co., Ltd.) for 2 minutes. […] After 1 hour of oral administration, the mice were again placed on the rod accelerated from 4 rpm to 40 rpm over 5 minutes and the latency to fall off the rod was recorded for 200 seconds. The falling latency of the compound administration group was calculated as a relative value relative to the average value of the falling latency in the solvent administration group. Here, a coordination disorder of 25% or less was expressed as “A”, and a coordination disorder of more than 25% and 50% or less was expressed as “B”."}}}
{"smiles": "Cc1c(-c2cnc(Oc3ccccc3)nc2)ccc2nccn12.Cl", "note": "[Example 198, 5-Methyl-6-(2-Phenoxypyrimidin-5-Yl) Imidazo[1,2-a]Pyridine Hydrochloride]", "values": [{"measurement": "inhibition in vivo at 5 mg/kg", "setting": "DBA/2 mice", "value": "> 90", "unit": "%"}, {"measurement": "Motor dysfunction", "setting": "ICR mice; dose 5 mg/kg", "value": "A (a coordination disorder of 25% or less)"}]}
{"smiles": "COc1ccc(-c2cnc(Oc3ccccc3F)nc2)nn1", "note": "[Example 3]", "values": [{"measurement": "inhibition in vivo at 5 mg/kg", "setting": "DBA/2 mice", "value": "> 90", "unit": "%"}, {"measurement": "Motor dysfunction", "setting": "ICR mice; dose 10 mg/kg", "value": "A (a coordination disorder of 25% or less)"}]}
{"smiles": "O=c1ccc(-c2cnc(Oc3cccnc3)nc2)n[nH]1", "note": "[Example 113]", "values": [{"measurement": "inhibition in vivo at 10 mg/kg", "setting": "DBA/2 mice", "value": "> 90", "unit": "%"}, {"measurement": "Motor dysfunction", "setting": "ICR mice; dose 10 mg/kg", "value": "A (a coordination disorder of 25% or less)"}]}
{"smiles": "c1ccc(Oc2ncc(-c3ccc4nncn4c3)cn2)cc1", "note": "[Example 129]", "values": [{"measurement": "inhibition in vivo at 5 mg/kg", "setting": "DBA/2 mice", "value": "> 90", "unit": "%"}, {"measurement": "Motor dysfunction", "setting": "ICR mice; dose 5 mg/kg", "value": "A (a coordination disorder of 25% or less)"}]}
{"smiles": "Nc1ccc(-c2cnc(Oc3ccccc3)nc2)cn1", "note": "[Example 36, 5-(2-Phenoxypyrimidin-5-Yl)Pyridin-2-Amine]", "values": [{"measurement": "inhibition in vivo at 5 mg/kg", "setting": "DBA/2 mice", "value": "> 90", "unit": "%"}, {"measurement": "Motor dysfunction", "setting": "ICR mice; dose 5 mg/kg", "value": "A (a coordination disorder of 25% or less)"}]}
{"smiles": "O=C1CCN(c2ccc(Oc3cccc(OC(F)F)c3)cc2)C(=O)N1", "note": "[Example 314, 1-{4-[3-(Difluoromethoxy) Phenoxy]Phenyl}Dihydropyrimidine-2,4 (1H,3H)-Dione]", "values": [{"measurement": "inhibition in vivo at 30 mg/kg", "setting": "DBA/2 mice", "value": "> 90", "unit": "%"}, {"measurement": "Motor dysfunction", "setting": "ICR mice; dose 30 mg/kg", "value": "A (a coordination disorder of 25% or less)"}]}
{"smiles": "c1ccc(Oc2ncc(-c3ccc4nncn4n3)cn2)cc1", "note": "[Example 289]", "values": [{"measurement": "inhibition in vivo at 1 mg/kg", "setting": "DBA/2 mice; dose 1 mg/kg", "value": "> 90", "unit": "%"}, {"measurement": "Motor dysfunction", "setting": "ICR mice; dose 1 mg/kg", "value": "A (a coordination disorder of 25% or less)"}]}
{"smiles": "FC(F)(F)c1ccc(-c2cnc(Oc3ccccc3)nc2)nn1", "note": "[Example 38, 3-(2-Phenoxypyrimidin-5-Yl)-6-(Trifluoromethyl)Pyridazine]", "values": [{"measurement": "inhibition in vivo at 10 mg/kg", "setting": "DBA/2 mice", "value": "> 90", "unit": "%"}, {"measurement": "Motor dysfunction", "setting": "ICR mice; dose 10 mg/kg", "value": "A (a coordination disorder of 25% or less)"}]}
{"smiles": "O=c1[nH]nccc1-c1cnc(Oc2ccccc2)nc1", "note": "[Example 114, 4-(2-Phenoxypyrimidin-5-Yl)Pyridazin-3 (2H)-One]", "values": [{"measurement": "inhibition in vivo at 5 mg/kg", "setting": "DBA/2 mice", "value": "> 90", "unit": "%"}, {"measurement": "Motor dysfunction", "setting": "ICR mice; dose 5 mg/kg", "value": "A (a coordination disorder of 25% or less)"}]}
{"smiles": "O=c1ccc(-c2cnc(Oc3cccc(C(F)(F)F)c3)nc2)n[nH]1", "note": "[Example 99]", "values": [{"measurement": "inhibition in vivo at 10 mg/kg", "setting": "DBA/2 mice", "value": "> 90", "unit": "%"}, {"measurement": "Motor dysfunction", "setting": "ICR mice; dose 10 mg/kg", "value": "A (a coordination disorder of 25% or less)"}]}
{"smiles": "O=C1CCN(c2ccc(Oc3ccccc3)nc2)C(=O)N1", "note": "[Example 320]", "values": [{"measurement": "inhibition in vivo at 30 mg/kg", "setting": "DBA/2 mice", "value": "> 90", "unit": "%"}, {"measurement": "Motor dysfunction", "setting": "ICR mice; dose 30 mg/kg", "value": "B (a coordination disorder of more than 25% and 50% or less)"}]}
{"smiles": "COc1ccc(-c2cnc(Oc3ccccc3)nc2)nn1", "note": "[Example 1, 3-Methoxy-6-(2-Phenoxypyrimidin-5-Yl)Pyridazine]", "values": [{"measurement": "inhibition in vivo at 5 mg/kg", "setting": "DBA/2 mice", "value": "> 90", "unit": "%"}, {"measurement": "Motor dysfunction", "setting": "ICR mice; dose 5 mg/kg", "value": "A (a coordination disorder of 25% or less)"}]}
{"smiles": "FC(F)(F)c1ncc(-c2cnc(Oc3ccccc3)nc2)cn1", "note": "[Example 296]", "values": [{"measurement": "inhibition in vivo at 30 mg/kg", "setting": "DBA/2 mice", "value": "> 90", "unit": "%"}, {"measurement": "Motor dysfunction", "setting": "ICR mice; dose 30 mg/kg", "value": "A (a coordination disorder of 25% or less)"}]}
{"smiles": "FC(F)(F)c1cccc(Oc2ncc(-c3ccc4nccn4c3)cn2)c1", "note": "[Example 170]", "values": [{"measurement": "inhibition in vivo at 5 mg/kg", "setting": "DBA/2 mice", "value": "> 90", "unit": "%"}, {"measurement": "Motor dysfunction", "setting": "ICR mice; dose 5 mg/kg", "value": "A (a coordination disorder of 25% or less)"}]}
{"smiles": "Cc1cc(Oc2ccccc2)ccc1N1CCC(=O)NC1=O", "note": "[Example 323]", "values": [{"measurement": "inhibition in vivo at 39 mg/kg", "setting": "DBA/2 mice; dose 39 mg/kg", "value": "70 to 90", "unit": "%"}, {"measurement": "Motor dysfunction", "setting": "ICR mice; dose 30 mg/kg", "value": "B (a coordination disorder of more than 25% and 50% or less)"}]}
{"smiles": "O=C1C[C@H](O)CCN1c1cnc(Oc2ccccc2)nc1", "note": "[Example 235]", "values": [{"measurement": "inhibition in vivo at 30 mg/kg", "setting": "DBA/2 mice", "value": "> 90", "unit": "%"}, {"measurement": "Motor dysfunction", "setting": "ICR mice; dose 30 mg/kg", "value": "A (a coordination disorder of 25% or less)"}]}
{"smiles": "N#Cc1ccc(-c2cnc(Oc3ccccc3)nc2)nc1", "note": "[Example 349]", "values": [{"measurement": "inhibition in vivo at 3 mg/kg", "setting": "DBA/2 mice", "value": "> 90", "unit": "%"}, {"measurement": "Motor dysfunction", "setting": "ICR mice; dose 3 mg/kg", "value": "A (a coordination disorder of 25% or less)"}]}
{"smiles": "O=C1CCN(c2ccc(Oc3ccccc3F)nc2)C(=O)N1", "note": "[Example 331]", "values": [{"measurement": "inhibition in vivo at 30 mg/kg", "setting": "DBA/2 mice", "value": "70 to 90", "unit": "%"}, {"measurement": "Motor dysfunction", "setting": "ICR mice; dose 30 mg/kg", "value": "A (a coordination disorder of 25% or less)"}]}
{"smiles": "O=C1CCC(c2cnc(Oc3ccc(F)cc3)nc2)=NN1", "note": "[Example 98]", "values": [{"measurement": "inhibition in vivo at 3 mg/kg", "setting": "DBA/2 mice", "value": "> 90", "unit": "%"}, {"measurement": "Motor dysfunction", "setting": "ICR mice; dose 3 mg/kg", "value": "A (a coordination disorder of 25% or less)"}]}
